Reference: US9474790B2, “Stable, protracted GLP-1/glucagon receptor co-agonists for medical use” (Novo Nordisk A/S, priority 2013, dated 2016)
Numbered stars: 1 amine (or outer) side, 2 acyl side, 3 side chain; on linkers, the order of the positions; unused ones are H or OH. Square brackets hold non-standard residues; d marks the D form. Side chains are listed from the residue outwards. Peptide text beside a SMILES is read from it. * marks the point of attachment. C18 diacid = O=C(O)CCCCCCCCCCCCCCCCC(=O)*; γGlu = O=C(O)[C@H](CCC(=O)[*:2])N[*:1]; Ac4c = NC1(C(=O)O)CCC1; AEEA = NCCOCCOCC(=O)O; Aib = CC(C)(N)C(=O)O

Key:
human GLP-1 receptor = molecular target: T1, human GLP-1 receptor (Homo sapiens, UniProt P43220); assay: GLP-1 receptor potency, CRE luciferase reporter gene assay in BHK cells; format: cell-based; conditions: BHK cells expressing human GLP-1 receptor, read-out: EC50 GLP-1R
T1 construct: expressed in transfected cells; host or cells: BHK cells (parent BHKTS13), clone FCW467-12A/KZ10-1, with CRE luciferase
T1 sequence (P43220 24-463): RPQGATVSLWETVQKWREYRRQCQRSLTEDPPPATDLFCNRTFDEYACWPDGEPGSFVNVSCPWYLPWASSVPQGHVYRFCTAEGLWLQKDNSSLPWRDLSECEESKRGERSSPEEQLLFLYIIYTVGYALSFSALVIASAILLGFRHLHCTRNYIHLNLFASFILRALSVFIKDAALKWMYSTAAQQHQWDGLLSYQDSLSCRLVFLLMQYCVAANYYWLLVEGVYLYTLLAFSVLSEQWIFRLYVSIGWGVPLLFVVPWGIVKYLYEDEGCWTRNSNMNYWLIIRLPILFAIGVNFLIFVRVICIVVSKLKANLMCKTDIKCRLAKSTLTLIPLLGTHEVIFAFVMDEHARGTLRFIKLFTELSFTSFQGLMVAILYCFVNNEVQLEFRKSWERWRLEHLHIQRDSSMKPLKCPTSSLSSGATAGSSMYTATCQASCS
In short: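 Potency as cAMP-driven firefly luciferase signal after 3 h, 37° C exposure to 10-fold dilutions (final 1×10EE-13–1×10EE-6 M). Stable hGLP-1R/CRE-luc BHK clone, 5×10EE3 cells/well, medium containing 2% ovalbumin and 0.2% Pluronic F-68; EC50 (pM) from variable-slope non-linear regression.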

human glucagon receptor = molecular target: T2, human glucagon receptor (Homo sapiens, UniProt P47871); assay: Glucagon receptor potency, CRE luciferase reporter gene assay in BHK cells; format: cell-based; conditions: BHK cells expressing human glucagon receptor, read-out: EC50 GlucR
T2 construct: expressed in transfected cells; host or cells: BHK cells (parent BHK570, CRE luciferase clone BHK/KZ10-20-48), clone pLJ6'-4-25
T2 sequence (P47871 26-477): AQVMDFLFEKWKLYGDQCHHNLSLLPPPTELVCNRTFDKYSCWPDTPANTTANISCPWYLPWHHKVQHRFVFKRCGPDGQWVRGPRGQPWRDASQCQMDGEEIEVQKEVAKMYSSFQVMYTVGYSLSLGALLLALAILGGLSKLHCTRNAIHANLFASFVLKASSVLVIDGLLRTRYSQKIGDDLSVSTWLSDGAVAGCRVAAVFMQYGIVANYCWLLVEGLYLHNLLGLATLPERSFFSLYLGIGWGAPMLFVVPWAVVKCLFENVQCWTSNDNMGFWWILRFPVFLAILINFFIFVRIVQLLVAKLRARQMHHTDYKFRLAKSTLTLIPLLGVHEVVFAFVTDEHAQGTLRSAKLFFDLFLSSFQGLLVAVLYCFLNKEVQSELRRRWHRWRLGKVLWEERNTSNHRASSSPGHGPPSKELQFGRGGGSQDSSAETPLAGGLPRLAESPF
In short: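 EC50 (pM) comes from a four-parameter fit of luciferase luminescence after 3 h at 37 °C with compound at final 1×10EE-13–1×10EE-6 M. Cells: BHK570-derived line carrying human glucagon receptor plus CRE-luciferase, 5×10EE3/well, in assay medium with 2% ovalbumin, 0.2% Pluronic F-68.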

Structure (SMILES)	EC50 (human GLP-1 receptor) [pM]	EC50 (human glucagon receptor) [nM]
CC(C)C[C@H](NC(=O)[C@H](Cc1ccc(O)cc1)NC(=O)[C@H](CCCCN)NC(=O)[C@H](CO)NC(=O)[C@H](CC(C)C)NC(=O)[C@H](CC(=O)O)NC(=O)[C@H](CO)NC(=O)[C@@H](NC(=O)[C@H](Cc1ccccc1)NC(=O)[C@@H](NC(=O)CNC(=O)[C@H](CCC(N)=O)NC(=O)C(C)(C)NC(=O)[C@@H](N)Cc1c[nH]cn1)[C@@H](C)O)[C@@H](C)O)C(=O)N[C@@H](CCC(=O)O)C(=O)N[C@@H](CO)C(=O)N[C@@H](CCCNC(=N)N)C(=O)N[C@@H](CCCNC(=N)N)C(=O)N[C@@H](C)C(=O)N[C@@H](CCCNC(=N)N)C(=O)N[C@@H](CCC(=O)O)C(=O)N[C@@H](Cc1ccccc1)C(=O)N[C@H](C(=O)N[C@@H](CCC(N)=O)C(=O)N[C@@H](Cc1c[nH]c2ccccc12)C(=O)N[C@@H](CC(C)C)C(=O)N[C@@H](CC(C)C)C(=O)N[C@@H](CCCCNC(=O)CC[C@H](NC(=O)CC[C@H](NC(=O)COCCOCCNC(=O)COCCOCCNC(=O)CC[C@H](NC(=O)CC[C@H](NC(=O)CCCCCCCCCCCCCCCCC(=O)O)C(=O)O)C(=O)O)C(=O)O)C(=O)O)C(=O)N[C@H](C(N)=O)[C@@H](C)O)C(C)C [Example 60, N^ε28-[(4S)-4-carboxy-4-[[(4S)-4-carboxy-4-[[2-[2-[2-[[2-[2-[2-[[(4S)-4-carboxy-4-[[(4S)-4-carboxy-4-(17-carboxyheptadecanoylamino)butanoyl]amino]butanoyl]amino]ethoxy]ethoxy]acetyl]amino]ethoxy]ethoxy]acetyl]amino]butanoyl]amino]butanoyl]-[Aib2,Leu10,Glu15,Arg20,Glu21,Leu27,Lys28]-Glucagon amide] (H-H[Aib]QGTFTSDLSKYLESRRAREFVQWLLK([γGlu-γGlu-AEEA-AEEA-γGlu-γGlu-C18 diacid])T-NH2; N-terminus assumed)	6	0.054
CC(C)C[C@H](NC(=O)[C@H](Cc1ccc(O)cc1)NC(=O)[C@H](CCCNC(=N)N)NC(=O)[C@H](CO)NC(=O)[C@H](CC(C)C)NC(=O)[C@H](CC(=O)O)NC(=O)[C@H](CO)NC(=O)[C@@H](NC(=O)[C@H](Cc1ccccc1)NC(=O)[C@@H](NC(=O)CNC(=O)[C@H](CCC(N)=O)NC(=O)C(C)(C)NC(=O)[C@@H](N)Cc1c[nH]cn1)[C@@H](C)O)[C@@H](C)O)C(=O)N[C@@H](CC(=O)O)C(=O)N[C@@H](C)C(=O)N[C@@H](CCCNC(=N)N)C(=O)N[C@@H](CCCNC(=N)N)C(=O)N[C@@H](C)C(=O)N[C@@H](CCCNC(=N)N)C(=O)N[C@@H](CC(=O)O)C(=O)N[C@@H](Cc1ccccc1)C(=O)N[C@H](C(=O)N[C@@H](CCC(N)=O)C(=O)N[C@@H](Cc1c[nH]c2ccccc12)C(=O)N[C@@H](CC(C)C)C(=O)N[C@@H](CC(C)C)C(=O)N[C@@H](CCCCNC(=O)CC[C@H](NC(=O)CC[C@H](NC(=O)CC[C@H](NC(=O)CCCCCCCCCCCCCCCCC(=O)O)C(=O)O)C(=O)O)C(=O)O)C(=O)N[C@H](C(N)=O)[C@@H](C)O)C(C)C [Example 62, N^ε28-[(4S)-4-carboxy-4-[[(4S)-4-carboxy-4-[[(4S)-4-carboxy-4-(17-carboxyheptadecanoylamino)butanoyl]amino]butanoyl]amino]butanoyl]-[Aib2,Leu10,Arg12,Ala16,Arg20,Leu27,Lys28]-Glucagon amide] (H-H[Aib]QGTFTSDLSRYLDARRARDFVQWLLK([γGlu-γGlu-γGlu-C18 diacid])T-NH2; N-terminus assumed)	8	0.01
CC(C)C[C@H](NC(=O)[C@H](Cc1ccc(O)cc1)NC(=O)[C@H](CCCCN)NC(=O)[C@H](CO)NC(=O)[C@H](CC(C)C)NC(=O)[C@H](CC(=O)O)NC(=O)[C@H](CO)NC(=O)[C@@H](NC(=O)[C@H](Cc1ccccc1)NC(=O)[C@@H](NC(=O)CNC(=O)[C@H](CCC(N)=O)NC(=O)C1(NC(=O)[C@@H](N)Cc2c[nH]cn2)CCC1)[C@@H](C)O)[C@@H](C)O)C(=O)N[C@@H](CCC(=O)O)C(=O)N[C@@H](CO)C(=O)N[C@@H](CCCNC(=N)N)C(=O)N[C@@H](CCCNC(=N)N)C(=O)N[C@@H](C)C(=O)N[C@@H](CCC(N)=O)C(=O)N[C@@H](CC(=O)O)C(=O)N[C@@H](Cc1ccccc1)C(=O)N[C@H](C(=O)N[C@@H](CCC(N)=O)C(=O)N[C@@H](Cc1c[nH]c2ccccc12)C(=O)N[C@@H](CC(C)C)C(=O)N[C@@H](CC(C)C)C(=O)N[C@@H](CCCCNC(=O)COCCOCCNC(=O)COCCOCCNC(=O)CC[C@H](NC(=O)CC[C@H](NC(=O)CC[C@H](NC(=O)CCCCCCCCCCCCCCCCC(=O)O)C(=O)O)C(=O)O)C(=O)O)C(=O)N[C@H](C(N)=O)[C@@H](C)O)C(C)C [Example 63, N^ε28-[2-[2-[2-[[2-[2-[2-[[(4S)-4-carboxy-4-[[(4S)-4-carboxy-4-[[(4S)-4-carboxy-4-(17-carboxyheptadecanoylamino)butanoyl]amino]butanoyl]amino]butanoyl]amino]ethoxy]ethoxy]acetyl]amino]ethoxy]ethoxy]acetyl]-[Acb2,Leu10,Glu15,Leu27,Lys28]-Glucagon amide] (H-H[Ac4c]QGTFTSDLSKYLESRRAQDFVQWLLK([AEEA-AEEA-γGlu-γGlu-γGlu-C18 diacid])T-NH2; N-terminus assumed)	7	0.024

Now those with a lower EC50 (human GLP-1 receptor), led by results:

EC50 (human GLP-1 receptor) [pM]	EC50 (human glucagon receptor) [nM]	Structure (SMILES)
4	0.017	CC(C)C[C@H](NC(=O)[C@H](Cc1ccc(O)cc1)NC(=O)[C@H](CCCNC(=N)N)NC(=O)[C@H](CO)NC(=O)[C@H](CC(C)C)NC(=O)[C@H](CC(=O)O)NC(=O)[C@H](CO)NC(=O)[C@@H](NC(=O)[C@H](Cc1ccccc1)NC(=O)[C@@H](NC(=O)CNC(=O)[C@H](CCC(N)=O)NC(=O)C1(NC(=O)[C@@H](N)Cc2c[nH]cn2)CCC1)[C@@H](C)O)[C@@H](C)O)C(=O)N[C@@H](CCC(=O)O)C(=O)N[C@@H](CO)C(=O)N[C@@H](CCCNC(=N)N)C(=O)N[C@@H](CCCNC(=N)N)C(=O)N[C@@H](C)C(=O)N[C@@H](CCCNC(=N)N)C(=O)N[C@@H](CCC(=O)O)C(=O)N[C@@H](Cc1ccccc1)C(=O)N[C@H](C(=O)N[C@@H](CCC(N)=O)C(=O)N[C@@H](Cc1c[nH]c2ccccc12)C(=O)N[C@@H](CC(C)C)C(=O)N[C@@H](CC(C)C)C(=O)N[C@@H](CCCCNC(=O)CC[C@H](NC(=O)CC[C@H](NC(=O)COCCOCCNC(=O)COCCOCCNC(=O)CC[C@H](NC(=O)CC[C@H](NC(=O)CCCCCCCCCCCCCCCCC(=O)O)C(=O)O)C(=O)O)C(=O)O)C(=O)O)C(=O)N[C@H](C(N)=O)[C@@H](C)O)C(C)C [Example 59, N^ε28-[(4S)-4-carboxy-4-[[(4S)-4-carboxy-4-[[2-[2-[2-[[2-[2-[2-[[(4S)-4-carboxy-4-[[(4S)-4-carboxy-4-(17-carboxyheptadecanoylamino)butanoyl]amino]butanoyl]amino]ethoxy]ethoxy]acetyl]amino]ethoxy]ethoxy]acetyl]amino]butanoyl]amino]butanoyl]-[Acb2,Leu10,Arg12,Glu15,Arg20,Glu21,Leu27,Lys28]-Glucagon amide] (H-H[Ac4c]QGTFTSDLSRYLESRRAREFVQWLLK([γGlu-γGlu-AEEA-AEEA-γGlu-γGlu-C18 diacid])T-NH2; N-terminus assumed)
4	0.01	CC(C)C[C@H](NC(=O)[C@H](Cc1ccc(O)cc1)NC(=O)[C@H](CCCCN)NC(=O)[C@H](CO)NC(=O)[C@H](CC(C)C)NC(=O)[C@H](CC(=O)O)NC(=O)[C@H](CO)NC(=O)[C@@H](NC(=O)[C@H](Cc1ccccc1)NC(=O)[C@@H](NC(=O)CNC(=O)[C@H](CCC(N)=O)NC(=O)C(C)(C)NC(=O)[C@@H](N)Cc1c[nH]cn1)[C@@H](C)O)[C@@H](C)O)C(=O)N[C@@H](CCC(=O)O)C(=O)N[C@@H](CO)C(=O)N[C@@H](CCCNC(=N)N)C(=O)N[C@@H](CCCNC(=N)N)C(=O)N[C@@H](C)C(=O)N[C@@H](CCCNC(=N)N)C(=O)N[C@@H](CCC(=O)O)C(=O)N[C@@H](Cc1ccccc1)C(=O)N[C@H](C(=O)N[C@@H](CCC(N)=O)C(=O)N[C@@H](Cc1c[nH]c2ccccc12)C(=O)N[C@@H](CC(C)C)C(=O)N[C@@H](CC(C)C)C(=O)N[C@@H](CCCCNC(=O)CC[C@H](NC(=O)CC[C@H](NC(=O)[C@H](CO)NC(=O)[C@H](CCC(=O)O)NC(=O)[C@H](CO)NC(=O)CC[C@H](NC(=O)CC[C@H](NC(=O)CCCCCCCCCCCCCCCCC(=O)O)C(=O)O)C(=O)O)C(=O)O)C(=O)O)C(=O)N[C@H](C(N)=O)[C@@H](C)O)C(C)C [Example 67, N^ε28-[(4S)-4-carboxy-4-[[(4S)-4-carboxy-4-[[(2S)-2-[[(2S)-4-carboxy-2-[[(2S)-2-[[(4S)-4-carboxy-4-[[(4S)-4-carboxy-4-(17-carboxyheptadecanoylamino)butanoyl]amino]butanoyl]amino]-3-hydroxypropanoyl]amino]butanoyl]amino]-3-hydroxypropanoyl]amino]butanoyl]amino]butanoyl]-[Aib2,Leu10,Glu15,Arg20,Glu21,Leu27,Lys28]-Glucagon amide] (H-H[Aib]QGTFTSDLSKYLESRRAREFVQWLLK([γGlu-γGlu-Ser-Glu-Ser-γGlu-γGlu-C18 diacid])T-NH2; N-terminus assumed)
